Measured values published in patent US5034402A, “Methods and pharmaceutical compositions using pyrrolidine derivatives” (Hoffmann-La Roche Inc., priority 1981, dated 1991).

How the values were obtained:
[1] = acute toxicity, single oral administration to mice; details: mouse, in vivo
Text: Moreover, the Table contains data concerning the acute toxicity (LD50 in mg/kg in the case of single oral administration to mice).

short-time memory = assay: passive avoidance response in the Skinner box; reversal of scopolamine-induced blocking of short-time memory; assay type: in vivo, rats
Text: The test apparatus is a "Skinner box" with an electrifiable grid floor (30×40 cm) and a grey plastic platform (15×15×0.8 cm) in the front right corner. Untrained male rats (100-120 g) are placed individually on the platform. As soon as they climb down on to the grid floor they receive an electric foot-shock (0.8 mA). The normal reaction of untrained rats is thereupon to jump back on to the platform. Since, however, the rats still attempt to climb down again, the foot-shock procedure must be repeated three to five times for each animal. After these three to five repetitions per animal, the rats have learned a so-called "passive avoidance response", that is, they no longer attempt to descend to the grid floor, since they know that they are punished when they do so.
Immediately thereafter three groups each comprising 30 animals are set up. The first group receives an injection (i.p.) of 0.3 mg/kg of scopolamine as well as distilled water (2 ml/kg, p.o.). The second group receives an injection (i.p.) of 0.3 mg/kg of scopolamine and an oral dosage of the test substance. The third group receives only distilled water (p.o).
Two (2) hours later each rat is placed once on the platform in the "Skinner box". […] The statistical significance of the difference between the results obtained in the first and in the second groups is determined by means of the Chi-Square Test. […]

Row | SMILES | LD50 [1] | Significant active dosage (short-time memory; oral dosage significantly active against scopolamine (0.3 mg/kg i.p.), assessed 2 hours later, Chi-Square Test, each listed dosage was active) | animals with retrograde effect on the short-time memory (short-time memory; scopolamine 0.3 mg/kg i.p. and distilled water p.o., during 3-4 hours)
1 | C[C@@H]1CCC[C@H](C)N1CCNC(=O)CN1CCC(O)C1=O (mixture of isomers) [Compound A, (R/S)-cis-N-[2-(2,6-dimethyl-1-piperidinyl)ethyl]-2-(3-hydroxy-2-oxo-1-pyrrolidinyl)acetamide] | > 5000 mg/kg | – | –
2 | NC(=O)CN1CCC(O)C1=O (racemic) [Compound D, (R/S)-2-(3-hydroxy-2-oxo-1-pyrrolidinyl)acetamide] | > 5000 mg/kg | – | –
3 | CC(C)N(CCNC(=O)CN1CCC(O)C1=O)C(C)C (racemic) [Compound E, (R/S)-N-[2-(diisopropylamino)ethyl]-2-(3-hydroxy-2-oxo-1-pyrrolidinyl)-acetamide] | > 5000 mg/kg | 3 mg/kg p.o. | –
4 | NC(=O)CN1CC[C@H](O)C1=O [Compound B, (S)-(-)-2-(3-hydroxy-2-oxo-1-pyrrolidinyl)acetamide] | > 5000 mg/kg | – | –
5 | NC(=O)CN1CC[C@@H](O)C1=O [Compound C, (R)-(+)-2-(3-hydroxy-2-oxo-1-pyrrolidinyl)acetamide] | > 5000 mg/kg | – | –
6 | CN1[C@@H]2C[C@@H](OC(=O)[C@H](CO)c3ccccc3)C[C@H]1[C@@H]1O[C@@H]12 [scopolamine, reference compound] | – | – | 85-92%
